Measurements as given in patent US20250195463A1, “ORGANOMETALLIC COMPLEX, CONTROLLED-RELEASE MULTI-FUNCTIONAL DRUG, PHARMACEUTICAL COMPOSITION, PROCESSES FOR THE PREPARATION THEREOF AND THEIR USE” (FACULDADE DE CIÊNCIAS DA UNIVERSIDADE DE LISBOA, priority 2022, published 2025).

Key:
[1] = Stability in organic medium (dimethyl sulfoxide) by UV-Vis spectroscopy; type: physicochemical; details: for Relative variation of the maximum absorbance of the charge transfer bands: band 357-425 nm (λmax in column head); for Relative variation of the maximum absorbance of the π→π* transitions: band 289-300 nm (λmax in column head)
Experimental: (§1) The stability of the complexes 4-11 in organic and aqueous media was evaluated over 24 h by UV-Vis spectroscopy at room temperature, in dark, on a Jasco V-660 spectrometer using quartz cuvettes (1 cm optical path length). The electronic spectra (270-900 nm) were acquired at regular periods of time (0 h, 0.25 h, 0.5 h, 0.75 h, 1 h, 2 h, 3 h, 4 h, 5 h, 6 h, 24 h) for solutions of 100% dimethyl sulfoxide (complexes 4-11) and 5% dimethyl sulfoxide/95% Dulbecco's Modified Eagle Medium (complexes 4, 5 and 8-11) or 10% dimethyl sulfoxide/90% Dulbecco's Modified Eagle Medium (complexes 6 and 7) at concentrations ranging from 7.0×10^-5 M to 3.0×10^-4 M.

[2] = Stability in aqueous medium (dimethyl sulfoxide/Dulbecco's Modified Eagle Medium) by UV-Vis spectroscopy; type: physicochemical; details: for Relative variation of the maximum absorbance of the π→π* transitions: band 292-296 nm (λmax in column head); for Relative variation of the maximum absorbance of the charge transfer bands: band 358-400 nm (λmax in column head)
Experimental: as §1

[3] = 10% dimethyl sulfoxide/90% Dulbecco's Modified Eagle Medium, time 0 h
[4] = 10% dimethyl sulfoxide/90% Dulbecco's Modified Eagle Medium, time 0.25 h
[5] = 10% dimethyl sulfoxide/90% Dulbecco's Modified Eagle Medium, time 0.5 h
[6] = 10% dimethyl sulfoxide/90% Dulbecco's Modified Eagle Medium, time 0.75 h
[7] = 10% dimethyl sulfoxide/90% Dulbecco's Modified Eagle Medium, time 1 h
[8] = 10% dimethyl sulfoxide/90% Dulbecco's Modified Eagle Medium, time 2 h
[9] = 10% dimethyl sulfoxide/90% Dulbecco's Modified Eagle Medium, time 3 h
[10] = 10% dimethyl sulfoxide/90% Dulbecco's Modified Eagle Medium, time 4 h
[11] = 10% dimethyl sulfoxide/90% Dulbecco's Modified Eagle Medium, time 5 h
[12] = 10% dimethyl sulfoxide/90% Dulbecco's Modified Eagle Medium, time 6 h
[13] = 10% dimethyl sulfoxide/90% Dulbecco's Modified Eagle Medium, time 24 h
[14] = 5% dimethyl sulfoxide/95% Dulbecco's Modified Eagle Medium, time 0 h
[15] = 5% dimethyl sulfoxide/95% Dulbecco's Modified Eagle Medium, time 0.25 h
[16] = 5% dimethyl sulfoxide/95% Dulbecco's Modified Eagle Medium, time 0.5 h
[17] = 5% dimethyl sulfoxide/95% Dulbecco's Modified Eagle Medium, time 0.75 h
[18] = 5% dimethyl sulfoxide/95% Dulbecco's Modified Eagle Medium, time 1 h
[19] = 5% dimethyl sulfoxide/95% Dulbecco's Modified Eagle Medium, time 2 h
[20] = 5% dimethyl sulfoxide/95% Dulbecco's Modified Eagle Medium, time 3 h
[21] = 5% dimethyl sulfoxide/95% Dulbecco's Modified Eagle Medium, time 4 h
[22] = 5% dimethyl sulfoxide/95% Dulbecco's Modified Eagle Medium, time 5 h
[23] = 5% dimethyl sulfoxide/95% Dulbecco's Modified Eagle Medium, time 6 h
[24] = 5% dimethyl sulfoxide/95% Dulbecco's Modified Eagle Medium, time 24 h

CC(=O)C1=C[CH]([Ru-]2([PH](c3ccccc3)(c3ccccc3)c3ccccc3)[n+]3cccc4ccc5ccc[n+]2c5c43)C=C1.O=S(=O)([O-])C(F)(F)F (centres unmarked) [compound 6]
Relative variation of the maximum absorbance of the charge transfer bands ([1]; time 0 h): 0.0%
Relative variation of the maximum absorbance of the charge transfer bands ([1]; time 0.25 h): −0.1%
Relative variation of the maximum absorbance of the charge transfer bands ([1]; time 0.5 h): 0.2%
Relative variation of the maximum absorbance of the charge transfer bands ([1]; time 0.75 h): 0.0%
Relative variation of the maximum absorbance of the charge transfer bands ([1]; time 1 h): 0.9%
Relative variation of the maximum absorbance of the charge transfer bands ([1]; time 2 h): 2.6%
Relative variation of the maximum absorbance of the charge transfer bands ([1]; time 3 h): 1.3%
Relative variation of the maximum absorbance of the charge transfer bands ([1]; time 4 h): 1.5%
Relative variation of the maximum absorbance of the charge transfer bands ([1]; time 5 h): −0.2%
Relative variation of the maximum absorbance of the charge transfer bands ([1]; time 6 h): −0.3%
Relative variation of the maximum absorbance of the charge transfer bands ([1]; time 24 h): 0.3%
Relative variation of the maximum absorbance of the π→π* transitions [2, 3]: 0.0%
Relative variation of the maximum absorbance of the charge transfer bands [2, 3]: 0.0%
Relative variation of the maximum absorbance of the π→π* transitions [2, 4]: −0.4%
Relative variation of the maximum absorbance of the charge transfer bands [2, 4]: 0.0%
Relative variation of the maximum absorbance of the π→π* transitions [2, 5]: 0.4%
Relative variation of the maximum absorbance of the charge transfer bands [2, 5]: 0.4%
Relative variation of the maximum absorbance of the π→π* transitions [2, 6]: 0.3%
Relative variation of the maximum absorbance of the charge transfer bands [2, 6]: 0.3%
Relative variation of the maximum absorbance of the π→π* transitions [2, 7]: −0.2%
Relative variation of the maximum absorbance of the charge transfer bands [2, 7]: 0.0%
Relative variation of the maximum absorbance of the π→π* transitions [2, 8]: 1.0%
Relative variation of the maximum absorbance of the charge transfer bands [2, 8]: 0.6%
Relative variation of the maximum absorbance of the π→π* transitions [2, 9]: 2.0%
Relative variation of the maximum absorbance of the charge transfer bands [2, 9]: 0.8%
Relative variation of the maximum absorbance of the π→π* transitions [2, 10]: 2.1%
Relative variation of the maximum absorbance of the charge transfer bands [2, 10]: 0.8%
Relative variation of the maximum absorbance of the π→π* transitions [2, 11]: 1.3%
Relative variation of the maximum absorbance of the charge transfer bands [2, 11]: 0.4%
Relative variation of the maximum absorbance of the π→π* transitions [2, 12]: 1.5%
Relative variation of the maximum absorbance of the charge transfer bands [2, 12]: 0.2%
Relative variation of the maximum absorbance of the π→π* transitions [2, 13]: 5.3%
Relative variation of the maximum absorbance of the charge transfer bands [2, 13]: 1.8%

COc1cc[n+]2c(c1)-c1cc(O)cc[n+]1[Ru-]2([CH]1C=CC=C1)[PH](c1ccccc1)(c1ccccc1)c1ccccc1.O=S(=O)([O-])C(F)(F)F (centres unmarked) [compound 10]
Relative variation of the maximum absorbance of the π→π* transitions ([1]; time 0 h): 0.0%
Relative variation of the maximum absorbance of the charge transfer bands ([1]; time 0 h): 0.0%
Relative variation of the maximum absorbance of the π→π* transitions ([1]; time 0.25 h): 0.0%
Relative variation of the maximum absorbance of the charge transfer bands ([1]; time 0.25 h): 0.0%
Relative variation of the maximum absorbance of the π→π* transitions ([1]; time 0.5 h): 0.0%
Relative variation of the maximum absorbance of the charge transfer bands ([1]; time 0.5 h): −0.2%
Relative variation of the maximum absorbance of the π→π* transitions ([1]; time 0.75 h): −0.1%
Relative variation of the maximum absorbance of the charge transfer bands ([1]; time 0.75 h): −0.3%
Relative variation of the maximum absorbance of the π→π* transitions ([1]; time 1 h): 0.9%
Relative variation of the maximum absorbance of the charge transfer bands ([1]; time 1 h): 0.7%
Relative variation of the maximum absorbance of the π→π* transitions ([1]; time 2 h): 1.5%
Relative variation of the maximum absorbance of the charge transfer bands ([1]; time 2 h): 1.5%
Relative variation of the maximum absorbance of the π→π* transitions ([1]; time 3 h): 2.5%
Relative variation of the maximum absorbance of the charge transfer bands ([1]; time 3 h): 2.5%
Relative variation of the maximum absorbance of the π→π* transitions ([1]; time 4 h): 3.0%
Relative variation of the maximum absorbance of the charge transfer bands ([1]; time 4 h): 3.1%
Relative variation of the maximum absorbance of the π→π* transitions ([1]; time 5 h): 3.0%
Relative variation of the maximum absorbance of the charge transfer bands ([1]; time 5 h): 3.2%
Relative variation of the maximum absorbance of the π→π* transitions ([1]; time 6 h): 2.8%
Relative variation of the maximum absorbance of the charge transfer bands ([1]; time 6 h): 3.1%
Relative variation of the maximum absorbance of the π→π* transitions ([1]; time 24 h): 3.3%
Relative variation of the maximum absorbance of the charge transfer bands ([1]; time 24 h): 4.2%
Relative variation of the maximum absorbance of the π→π* transitions [2, 14]: 0.0%
Relative variation of the maximum absorbance of the charge transfer bands [2, 14]: 0.0%
Relative variation of the maximum absorbance of the π→π* transitions [2, 15]: 0.0%
Relative variation of the maximum absorbance of the charge transfer bands [2, 15]: −0.8%
Relative variation of the maximum absorbance of the π→π* transitions [2, 16]: −1.7%
Relative variation of the maximum absorbance of the charge transfer bands [2, 16]: −0.7%
Relative variation of the maximum absorbance of the π→π* transitions [2, 17]: −1.9%
Relative variation of the maximum absorbance of the charge transfer bands [2, 17]: −1.0%
Relative variation of the maximum absorbance of the π→π* transitions [2, 18]: −2.2%
Relative variation of the maximum absorbance of the charge transfer bands [2, 18]: −1.3%
Relative variation of the maximum absorbance of the π→π* transitions [2, 19]: −3.1%
Relative variation of the maximum absorbance of the charge transfer bands [2, 19]: −2.3%
Relative variation of the maximum absorbance of the π→π* transitions [2, 20]: −4.1%
Relative variation of the maximum absorbance of the charge transfer bands [2, 20]: −3.1%
Relative variation of the maximum absorbance of the π→π* transitions [2, 21]: −5.1%
Relative variation of the maximum absorbance of the charge transfer bands [2, 21]: −3.6%
Relative variation of the maximum absorbance of the π→π* transitions [2, 22]: −5.6%
Relative variation of the maximum absorbance of the charge transfer bands [2, 22]: −4.3%
Relative variation of the maximum absorbance of the π→π* transitions [2, 23]: −6.0%
Relative variation of the maximum absorbance of the charge transfer bands [2, 23]: −4.8%
Relative variation of the maximum absorbance of the π→π* transitions [2, 24]: −7.0%
Relative variation of the maximum absorbance of the charge transfer bands [2, 24]: −5.0%
